One assay has as its system MDANQ01 cells. Nature of the assay: MTT cell viability assay, MDANQ01 breast cancer cells. Format: cell-based. The conditions noted are these: MDANQ01, 96 hours, cisplatinum 1-25 μM. As to the method: (§1) The breast cancer cell MDA 468 and MDANQ01, K562 and human lymphoblastic cell line (MOLT-4) were grown in RPMI 1640 medium supplemented with 1% L-glutamine, 1% of 100 Units/ml penicillin and 0.1 mg/ml streptomycin and 10% inactivated FCS. While the […] cell line HeLa and fibroblast cell line 3T3 were grown in DMEM medium supplemented with 20% inactivated FCS, 1% L-glutamine, 1% of 100 units/ml penicillin & 0.1 mg/ml streptomycin. All cell lines were maintained in a humidified incubator with an atmosphere of 95% air and 5% CO2 at 37° C.
(§2) Cell viability was determined by the MTT (3-(4,5 dimethylthiazol2-yl)-2,5 diphenyltetrazolium bromide) test method. […] The metabolic activity of each well was determined by the (MTT) assay and compared to those of untreated cells. […] Cell viability was determined based on mitochondrial conversion of 3[4,5-dimethylthiazol-2-yl] […] The plates were gently agitated until the colour reaction was uniform and the absorbance was measured at 570 nm using a multi-well plate reader, Sigma Plot 2000 software was used for data analysis. The cell viability effects from exposure of cells to each concentration of crude whelk GAGs, commercial GAGs and cisplatinum were analysed as percentages of the control cell absorbance, which were obtained from control wells plated in RPMI, 1% L-glutamate and 10% FCS media. […]

Another assay relates to MDA-468 cells. Nature of the assay: MTT cell viability assay, MDA-468 breast cancer cells. The conditions noted are these: MDA-468, 96 hours, cisplatinum 1-25 μM. It counts as cell-based. As to the method: as §1, §2
(In general: Tetrazolium assays rely on reduction of a dye to a coloured formazan, in cell work by metabolically active cells.)

The term IC50 denotes the midpoint of a concentration-inhibition curve. A lower IC50 goes with inhibition by little substance. Regarding `N.N.[Cl][Pt][Cl]` [cisplatinum], the figures for the IC50 in the assay on MDANQ01 cells and in the assay with MDA-468 cells were 630 nM and 880 nM, respectively.

For the origin of these results see patent publication US20170312305A1, “PHARMACEUTICAL EXTRACTS AND USES THEREOF” (UNIVERSITY OF SALFORD ENTERPRISES LIMITED, priority 2014, published 2017).
